From PMC7845594, “Novel Immune Modulators Enhance Caenorhabditis elegans Resistance to Multiple Pathogens” (mSphere, 2021)

Tested on: C. elegans transcriptome
Test: Transcriptome profiling (Affymetrix microarrays), differentially expressed genes
Assay type: in vivo, Caenorhabditis elegans
Protocol: To gain additional insight into the effect of LK molecules on C. elegans, young-adult, wild-type worms were treated with each drug at 100 µM for 8 h in the absence of pathogen. RNA was collected, and transcriptome profiling was performed.
Data were determined using Affymetrix microarrays, as described in Materials and Methods. Download Table S3, XLSX file, 0.07 MB.
Transcriptome profiling was performed on ∼6,000 wild-type, young adult worms incubated with either LK molecules or DMSO for 8 h. RNA isolation was performed using TRIzol extraction, followed by cleanup using RNeasy columns according to the manufacturer’s protocol. Each condition was analyzed in triplicate. Microarray data have been deposited in the GEO database, accession number GSE137516. […] Clustering and generation of the heat map was performed using Cluster 3.0 ([98]) and Treeview ([99]), respectively. Fold change of genes were normalized to average fold change of that gene over all clustered conditions. Genes and conditions were clustered using Euclidean distance and average linkages. […] Microarray data for non-LK molecules were collected from GEO omnibus. WormEXP was used as a secondary method for confirming statistical significance of potential pathways stimulated by each of the LK molecules ([100]). Gene ontologies were generated using DAVID ([101], [102]).

[1] = Downregulated genes, Affy_ID 171867_x_at

Structure (SMILES): CNC(=O)Oc1c(Br)cc2sc(=O)oc2c1Br [LK34]
- Fold Change (Affy_ID 171867_x_at, listed under genes C09B9.6, F36H12.7, K07F5.1, R05F9.13, R13H9.2, R13H9.4, T13F2.10, T13F2.11, Y59E9AR.1, Y59E9AR.7, ZK354.1, downregulated genes): 0.2366
- Fold Change, gene ZK354.1 [1]: 0.2366
- Fold Change, gene ZK354.10 [1]: 0.2366
- Fold Change, gene ZK354.11 [1]: 0.2366
- Fold Change, gene ZK354.4 [1]: 0.2366
- Fold Change, gene ZK354.5 [1]: 0.2366
- Fold Change, gene ZK525.1 (Downregulated genes, Affy_ID 172214_x_at): 0.3205
- Fold Change, gene ZK484.8 (Downregulated genes, Affy_ID 172381_x_at): 0.3874
- Fold Change, gene ZK546.3 (Downregulated genes, Affy_ID 172798_x_at): 0.1968
- Fold Change, gene ZK131.7 (Downregulated genes, Affy_ID 172871_x_at): 0.3375
- Fold Change, gene ZK546.6 (Downregulated genes, Affy_ID 172900_x_at): 0.1968
- Fold Change, gene ZK669.2 (Downregulated genes, Affy_ID 179491_at): 0.229
- Fold Change, gene ZK550.2 (Downregulated genes, Affy_ID 179513_at): 0.3085
- Fold Change, gene ZK484.5 (Downregulated genes, Affy_ID 182193_at): 0.3399
- Fold Change, gene ZK593.1 (Downregulated genes, Affy_ID 189095_at): 0.4248
- Fold Change, gene ZK666.7 (Downregulated genes, Affy_ID 194066_s_at): 0.02705
- Fold Change (Gene C05C12.3, Affy_ID 183355_s_at, downregulated genes): 0.4055
- Fold Change (Gene M163.1, Affy_ID 177298_at, downregulated genes): 0.426
- Fold Change (Gene R01E6.3, Affy_ID 189628_at, downregulated genes): 0.3684
- Fold Change (Gene R03E9.1, Affy_ID 193723_s_at, downregulated genes): 0.2017
- Fold Change (Gene R03E9.3, Affy_ID 174840_s_at, downregulated genes): 0.4768
- Fold Change (Gene R05F9.3, Affy_ID 172725_x_at, downregulated genes): 0.4019
- Fold Change (Gene R05F9.8, Affy_ID 172724_x_at, downregulated genes): 0.2519
- Fold Change (Gene R05G6.10, Affy_ID 192058_at, downregulated genes): 0.3616
- Fold Change (Gene R12C12.1, Affy_ID 190616_at, downregulated genes): 0.2442
- Fold Change (Gene R12E2.9, Affy_ID 180698_s_at, downregulated genes): 0.3881
- Fold Change (Gene R52.3, Affy_ID 177369_at, downregulated genes): 0.4244
- Fold Change (Gene T01C3.4, Affy_ID 188106_at, downregulated genes): 0.02189
- Fold Change (Gene T02B11.3, Affy_ID 174051_s_at, downregulated genes): 0.4182
- Fold Change (upregulated gene T13H2.4, Affy_ID 183082_s_at): 2.522
- Fold Change (upregulated gene T14F9.3, Affy_ID 173287_s_at): 3.284
- Fold Change (upregulated gene T14G8.1, Affy_ID 193596_s_at): 3.752
- Fold Change (upregulated gene T15B7.3, Affy_ID 188456_at): 3.308
- Fold Change (upregulated gene T19B10.2, Affy_ID 181715_s_at): 5.383
- Fold Change (upregulated gene T20F7.6, Affy_ID 173076_s_at): 3.038
- Fold Change (upregulated gene T21C12.2, Affy_ID 193009_at): 2.072
- Fold Change (upregulated gene T21E3.3, Affy_ID 173760_s_at): 2.777
- Fold Change (upregulated gene T22B7.3, Affy_ID 181552_at): 4.555
- Fold Change (upregulated gene T22B7.7, Affy_ID 173688_s_at): 13.7199
- Fold Change (upregulated gene T22F3.3, Affy_ID 176676_s_at): 2.752
- Fold Change (upregulated gene T24B8.3, Affy_ID 175022_s_at): 3.173
- Fold Change (upregulated gene T24B8.5, Affy_ID 178297_at): 134.612
- Fold Change (upregulated gene T24C4.4, Affy_ID 182815_at): 2.661
- Fold Change (upregulated gene T25G12.5, Affy_ID 174581_s_at): 2.002
- Fold Change (upregulated gene T26C5.1, Affy_ID 190852_at): 2.137
- Fold Change (upregulated gene T27A3.2, Affy_ID 192961_at): 2.203
- Fold Change (upregulated gene T27E4.3, Affy_ID 172901_x_at): 16.0293
- Fold Change (upregulated gene T28D9.3, Affy_ID 187493_at): 2.783
- Fold Change (upregulated gene VZK822L.1, Affy_ID 187997_s_at): 2.806
- Fold Change (upregulated gene W01F3.2, Affy_ID 173274_s_at): 7.505
- Fold Change (upregulated gene W02A2.7, Affy_ID 193943_at): 2.753
- Fold Change (upregulated gene W03C9.7, Affy_ID 194039_s_at): 2.373
- Fold Change (upregulated gene W03F8.10, Affy_ID 174843_at): 5.242
- Fold Change (upregulated gene W03F9.4, Affy_ID 189587_s_at): 16.8516
- Fold Change (upregulated gene W04A8.4, Affy_ID 178654_s_at): 22.7121
- Fold Change (upregulated gene W04B5.1, Affy_ID 180966_s_at): 3.157
- Fold Change (upregulated gene W04B5.3, Affy_ID 173153_s_at): 2.678
- Fold Change (upregulated gene W05G11.6, Affy_ID 192581_s_at): 4.517
- Fold Change (upregulated gene W05H9.1, Affy_ID 179806_at): 2.462
- Fold Change (upregulated gene W06D4.1, Affy_ID 172046_x_at): 3.704
- Fold Change (upregulated gene W06D12.3, Affy_ID 192357_at): 7.111
- Fold Change (upregulated gene W06H8.1, Affy_ID 185746_s_at): 2.211
- Fold Change (upregulated gene W09C3.1, Affy_ID 192187_s_at): 2.464
- Fold Change (upregulated gene W09D10.2, Affy_ID 188190_at): 2.479
- Fold Change (upregulated gene Y17G7B.5, Affy_ID 191321_s_at): 2.063
- Fold Change (upregulated gene Y19D10A.9, Affy_ID 180592_s_at): 3.023
- Fold Change (upregulated gene Y22F5A.4, Affy_ID 182989_at): 2.493
- Fold Change (upregulated gene Y22F5A.5, Affy_ID 183028_s_at): 6.999
- Fold Change (upregulated gene Y25C1A.13, Affy_ID 192131_s_at): 2.041
- Fold Change (upregulated gene Y37A1B.5, Affy_ID 182849_at): 3.394
- Fold Change (upregulated gene Y37D8A.3, Affy_ID 182387_at): 3.237
- Fold Change (upregulated gene Y37D8A.6, Affy_ID 181665_at): 3.132
- Fold Change (upregulated gene Y37E3.16, Affy_ID 173045_at): 3.373
- Fold Change (upregulated gene Y38E10A.14, Affy_ID 175449_s_at): 19.1307
- Fold Change (upregulated gene Y38F1A.9, Affy_ID 183759_at): 3.202
- Fold Change (upregulated gene Y39G10AR.10, Affy_ID 176486_at): 3.752
- Fold Change (upregulated gene Y40B10A.6, Affy_ID 176851_at): 72.4303
- Fold Change (upregulated gene Y41C4A.16, Affy_ID 194230_x_at): 2.854
- Fold Change (upregulated gene Y41D4B.10, Affy_ID 176055_at): 12.5937
- Fold Change (upregulated gene Y41D4B.16, Affy_ID 176044_at): 3.687
- Fold Change (upregulated gene Y42G9A.3, Affy_ID 184843_at): 2.448
- Fold Change (upregulated gene Y45F3A.3, Affy_ID 190484_at): 2.142
- Fold Change (upregulated gene Y45F10C.4, Affy_ID 186062_at): 3.365
- Fold Change (upregulated gene Y45G12C.2, Affy_ID 187084_at): 44.4121
- Fold Change (upregulated gene Y47D3B.10, Affy_ID 175803_at): 16.792
- Fold Change (upregulated gene Y47H9C.5, Affy_ID 191065_s_at): 3.655
- Fold Change (upregulated gene Y51H7C.1, Affy_ID 186349_at): 10.7753
- Fold Change (upregulated gene Y53C10A.5, Affy_ID 185387_s_at): 2.3
- Fold Change (upregulated gene Y53F4B.33, Affy_ID 191337_at): 3.746
- Fold Change (upregulated gene Y53G8B.2, Affy_ID 184714_s_at): 12.3167
- Fold Change (upregulated gene Y55B1AR.1, Affy_ID 187047_at): 6.102
- Fold Change (upregulated gene Y57A10A.23, Affy_ID 187073_at): 4.099
- Fold Change (upregulated gene Y57G7A.1, Affy_ID 184451_at): 2.494
- Fold Change (upregulated gene Y66D12A.24, Affy_ID 175124_at): 2.157
- Fold Change (upregulated gene Y73F4A.1, Affy_ID 183741_s_at): 2.361
- Fold Change (upregulated gene Y77E11A.2, Affy_ID 187013_at): 2.74
- Fold Change (upregulated gene Y105C5B.15, Affy_ID 186799_at): 3.153
- Fold Change (upregulated gene Y105C5B.9, Affy_ID 185162_at): 4.733
- Fold Change (upregulated gene Y106G6D.6, Affy_ID 185498_at): 6.605
- Fold Change (upregulated gene Y110A2AL.4, Affy_ID 175367_s_at): 14.9078
- Fold Change (upregulated gene ZC64.2, Affy_ID 177670_at): 2.001
- Fold Change (upregulated gene ZC155.1, Affy_ID 173222_s_at): 2.272
- Fold Change (upregulated gene ZC455.4, Affy_ID 191057_s_at): 5.011
- Fold Change (upregulated gene ZK6.10, Affy_ID 175170_s_at): 5.465
- Fold Change (upregulated gene ZK455.1, Affy_ID 193891_at): 2.692
- Fold Change (upregulated gene ZK512.7, Affy_ID 186714_s_at): 3.907
- Fold Change (upregulated gene ZK550.6, Affy_ID 186811_s_at): 2.631
- Fold Change (upregulated gene ZK637.13, Affy_ID 173475_s_at): 3.509
- Fold Change (upregulated gene ZK688.6, Affy_ID 176040_s_at): 2.439
- Fold Change (upregulated gene ZK770.3, Affy_ID 180366_s_at): 3.016
- Fold Change (upregulated gene ZK829.9, Affy_ID 189819_s_at): 5.03
- Fold Change (upregulated gene ZK899.2, Affy_ID 178376_s_at): 4.028
- Fold Change (upregulated gene ZK1058.6, Affy_ID 188607_at): 45.3463
- Fold Change (upregulated gene ZK1251.2, Affy_ID 188538_at): 5.974
- Fold Change (upregulated gene ZK1290.8, Affy_ID 184676_s_at): 4.32
